The source of these data is ChEMBL document CHEMBL1151147, “Furanoid lignans from Larrea tridentata” (J Nat Prod, 1990).

The source made the active and inactive calls. No cut-off for these calls is given here.

Type in all cases: functional, organism-based
In experiment [1] the test system is Rattus norvegicus. The experiment is described as follows: Estrogenic activity in Sprague-Dawley rat at 30 mg/kg. Details: dose 30 mg/kg.
Experiment [2] concerns Rattus norvegicus. The experiment is described as follows: Antiimplantation activity in Sprague-Dawley rat assessed as decrease in fertility rate at 30 mg/kg administered postcoitally. Also noted: dose 30 mg/kg.
Experiment [3] concerns Rattus norvegicus. The experiment is described as follows: Antiimplantation activity in Sprague-Dawley rat administered postcoitally.
Experiment [4] has as its system Rattus norvegicus. The experiment is described as follows: Antiimplantation activity in Sprague-Dawley rat assessed as absence of viable fetuses at 15 mg/kg administered postcoitally. Details: dose 15 mg/kg.
Experiment [5] relates to Rattus norvegicus. The experiment is described as follows: Antiimplantation activity in Sprague-Dawley rat assessed as decrease in implantation sites at 60 mg/kg administered postcoitally. Also noted: dose 60 mg/kg.
The subject of experiment [6] is Rattus norvegicus. Nature of the experiment: Antiimplantation activity in Sprague-Dawley rat assessed as decrease in implantation sites at 30 mg/kg administered postcoitally. Also noted: dose 30 mg/kg.
Experiment [7] relates to Rattus norvegicus. The experiment is described as follows: Antiimplantation activity in Sprague-Dawley rat at 5 mg/kg, po administered postcoitally. Also noted: dose 5 mg/kg.

`C[C@H]1[C@H](c2ccc(O)cc2)c2cc(O)c(O)cc2C[C@H]1C`: the result in the experiment on Rattus norvegicus [1], with Rattus norvegicus [2], in the experiment with Rattus norvegicus [4], with Rattus norvegicus [5] and in the experiment on Rattus norvegicus [6] was Active. For the same molecule, the Activity result with Rattus norvegicus [3] was “Dose-dependent effect”. Also, the outcome in the experiment with Rattus norvegicus [7] was inactive.
